{
  "source": "patent US20240408180A1",
  "about": "“IONIC LIQUIDS FOR DRUG DELIVERY” (PRESIDENT AND FELLOWS OF HARVARD COLLEGE, priority 2021, published 2024)",
  "key": {"[1]": {"target": "Type I Human Collagen (human) (UniProt P02452)", "sequence (P02452 179-1192 limits assumed, chain 1 of 2)": "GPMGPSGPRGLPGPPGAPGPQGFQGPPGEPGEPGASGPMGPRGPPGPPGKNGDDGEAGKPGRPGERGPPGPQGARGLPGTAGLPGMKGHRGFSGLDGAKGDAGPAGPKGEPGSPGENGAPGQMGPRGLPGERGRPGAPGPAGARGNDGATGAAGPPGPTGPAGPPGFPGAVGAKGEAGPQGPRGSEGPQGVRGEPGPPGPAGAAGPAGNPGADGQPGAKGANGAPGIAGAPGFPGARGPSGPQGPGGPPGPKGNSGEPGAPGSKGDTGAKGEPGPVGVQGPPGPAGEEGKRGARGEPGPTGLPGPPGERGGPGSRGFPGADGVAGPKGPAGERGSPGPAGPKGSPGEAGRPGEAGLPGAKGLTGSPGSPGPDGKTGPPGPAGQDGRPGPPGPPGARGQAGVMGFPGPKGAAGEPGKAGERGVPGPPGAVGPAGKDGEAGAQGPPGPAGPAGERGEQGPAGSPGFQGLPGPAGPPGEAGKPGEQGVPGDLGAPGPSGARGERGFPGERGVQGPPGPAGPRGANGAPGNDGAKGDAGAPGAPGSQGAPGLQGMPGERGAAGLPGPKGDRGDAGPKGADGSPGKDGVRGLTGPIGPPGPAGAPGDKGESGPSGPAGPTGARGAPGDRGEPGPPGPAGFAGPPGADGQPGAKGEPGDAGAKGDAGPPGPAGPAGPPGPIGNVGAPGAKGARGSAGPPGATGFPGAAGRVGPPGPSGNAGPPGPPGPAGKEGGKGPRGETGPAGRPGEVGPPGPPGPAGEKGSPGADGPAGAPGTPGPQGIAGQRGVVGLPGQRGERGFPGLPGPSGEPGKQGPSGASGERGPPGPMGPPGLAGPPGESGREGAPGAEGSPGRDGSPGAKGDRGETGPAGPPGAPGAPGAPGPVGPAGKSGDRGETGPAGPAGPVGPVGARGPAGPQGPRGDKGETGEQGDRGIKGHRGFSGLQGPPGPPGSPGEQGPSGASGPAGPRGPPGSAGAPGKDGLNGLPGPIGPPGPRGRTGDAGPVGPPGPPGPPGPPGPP", "sequence (P08123 91-1104 limits assumed, chain 2 of 2, further chain)": "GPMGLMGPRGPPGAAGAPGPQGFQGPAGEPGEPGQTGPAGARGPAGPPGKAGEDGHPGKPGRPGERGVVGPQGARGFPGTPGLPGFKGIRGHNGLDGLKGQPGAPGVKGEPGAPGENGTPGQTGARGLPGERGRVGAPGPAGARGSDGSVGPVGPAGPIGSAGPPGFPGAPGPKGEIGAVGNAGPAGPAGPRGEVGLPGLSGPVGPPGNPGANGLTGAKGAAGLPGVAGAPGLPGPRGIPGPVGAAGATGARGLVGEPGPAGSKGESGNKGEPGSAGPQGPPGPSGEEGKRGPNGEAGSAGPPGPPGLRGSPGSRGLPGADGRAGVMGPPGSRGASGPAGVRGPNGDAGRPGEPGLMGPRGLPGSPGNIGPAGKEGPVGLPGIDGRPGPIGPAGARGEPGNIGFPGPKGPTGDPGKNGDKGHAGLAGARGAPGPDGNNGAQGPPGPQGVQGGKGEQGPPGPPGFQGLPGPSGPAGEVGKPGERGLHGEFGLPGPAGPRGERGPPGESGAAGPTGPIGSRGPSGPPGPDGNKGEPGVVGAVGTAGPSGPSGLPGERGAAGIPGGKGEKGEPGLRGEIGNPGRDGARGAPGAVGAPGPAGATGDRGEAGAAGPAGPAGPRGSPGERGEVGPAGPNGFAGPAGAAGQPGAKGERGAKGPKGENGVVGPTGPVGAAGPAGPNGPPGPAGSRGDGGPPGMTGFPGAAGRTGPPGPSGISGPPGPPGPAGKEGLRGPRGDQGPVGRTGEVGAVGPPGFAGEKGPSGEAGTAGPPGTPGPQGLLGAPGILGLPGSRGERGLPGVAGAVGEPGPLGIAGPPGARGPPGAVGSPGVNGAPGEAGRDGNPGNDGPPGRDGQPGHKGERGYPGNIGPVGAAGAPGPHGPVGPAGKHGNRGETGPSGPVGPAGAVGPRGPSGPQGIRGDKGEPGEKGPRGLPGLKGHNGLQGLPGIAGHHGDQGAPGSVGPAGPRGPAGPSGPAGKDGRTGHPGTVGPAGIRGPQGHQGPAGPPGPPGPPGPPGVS", "assay": "fluorescence polarization of Cy5.5-insulin mixed with Type I human collagen"}, "[2]": {"target": "Type I Human Collagen (human) (UniProt P02452)", "assay": "dynamic light scattering time course after mixing with collagen"}, "[3]": {"target": "Type I Human Collagen (human) (UniProt P02452)", "assay": "dynamic light scattering after mixing the insulin formulation with collagen"}, "[4]": {"assay": "In vivo PK of insulin in ILs after subcutaneous injection", "conditions": "rats, insulin 1 U/kg, non-fasted"}, "[5]": {"target": "T1, insulin (Homo sapiens, UniProt P01308)", "T1 construct": "in this case insulin around 5.8 kDa; purchased Sigma Aldrich (St. Louis, MO)", "T1 sequence (P01308 25-54 limits assumed, species assumed)": "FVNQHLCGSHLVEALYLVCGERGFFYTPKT", "T1 sequence (P01308 90-110 limits assumed, species assumed)": "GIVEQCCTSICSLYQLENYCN", "assay": "Circular dichroism of insulin secondary structure in ILs", "type": "physicochemical", "conditions": "one hour at room temperature and at 37 C; insulin ~6 U/mL (0.2 mg/mL); versus saline negative control", "protocol": "Circular dichroism was used to assess insulin secondary structure (FIG. 2). The experiment was performed after incubation at room temperature and at 37° C. (physiological temperature) for one hour. This was done to assess whether the heat change associated with subcutaneous injection may affect the insulin structure. […] “aCG” refers to acetylcholine glycolic acid and “aCH” refers to acetylcholine hexenoic acid. Insulin concentration was ˜6 U/mL (0.2 mg/mL)."}, "[6]": {"target": "T1, insulin", "assay": "Cold-chain stability of insulin-DES formulations (transmittance)", "type": "physicochemical", "conditions": "4 C over 28 days", "protocol": "(§1) The final screening was performed to assess cold-chain stability and confirm monomer conformational stability. […] The stability of hexenoate-based formulations was further confirmed by assessing the protein's secondary structure through circular dichroism (CD). […] CD spectra integrity was also confirmed by measuring the high-tension voltage, which was maintained below 500 V for the relevant insulin CD wavelengths (FIG. 14).\n(§2) The insulin-DES formations were first analyzed for initial transmittance to confirm that there was no insulin aggregation immediately after formulation preparation. Subsequently, formulations that passed initial screening were plated in a black-walled 96 well plate (replicates of three) and subjected to a stressed aging assay in which the plate was incubated at 37° C. with constant shaking. Absorbance readings were taken every 15 minutes for 50 hours to assess the change in transmittance over time. For cold chain stability, formulations were tested in a similar manner, without constant shaking, at 4° C. for 28 days."}, "[7]": {"test_system": "rituximab", "assay": "SPADE-mAb stability by SDS-PAGE", "type": "physicochemical", "conditions": "for rituximab stability by SDS-PAGE: 37 C for 2 and 24 hours", "protocol": "(§3) Described herein the exploration of whether SPADE can also enhance the absorption of a large protein biologic, namely monoclonal antibody rituximab (SPADE-mAb), that would benefit from greater absorption from subcutaneous administration. Due to the clinical requirement of higher dosing for subcutaneous antibody formulation compared to insulin, we first assessed DES concentration for stable SPADE formulation with rituximab using SDS-PAGE and CD. Formulations were prepared with various DES concentrations and consistent rituximab concentrations and incubated at 37° C. for 2 and 24 hours. After incubation, the samples were dialyzed against sodium phosphate to remove DES, and the resulting samples were diluted to the same concentration via UV-Vis spectrophotometry before SDS-PAGE and CD analyses. […] To further confirm this CD was used to assess the secondary structure of the samples that were incubated for 24 hours.\nProtein Stability Assessment Using Circular Dichroism and SDS-PAGE. Insulin and antibody formulations were incubated at 37° C. for one hour and subsequently dialyzed against 10 mM Sodium Phosphate pH 7.4. In preparation for circular dichroism (CD) and SDS-PAGE, the post-dialysis concentration was measured with UV Spectrophotometry (Thermo Scientific NanoDrop One) and adjusted to 200 μg/mL. CD was performed by loading quartz cuvettes (Starna Cells Spectrosil Quartz 1-Q-1), with 200 μL of the sample, into a CD spectrophotometer (Jasco J-815). Mean ellipticity was measured from 190 to 250 nm.\nTo assess antibody aggregation, SDS-PAGE was performed using vertical gel electrophoresis (BioRad Mini-PROTEAN Tetra Cell) loaded with precast polyacrylamide gels (BioRad TGX 4-15%) according to the manufacturer protocol. To form SDS complexes, samples were incubated in 1× Lammeli buffer for 10 minutes at 70° C. before loading in the gel. After 30 minutes of electrophoresis, the gel was removed and protein bands stained with Coumassie dye."}, "[8]": {"test_system": "antibody", "assay": "Antibody aggregation by SDS-PAGE", "type": "physicochemical", "conditions": "one hour at room temperature; versus control", "protocol": "(§4) Antibody stability was next tested. Circular dichroism and SDS-PAGE were used to assess antibody stability (FIG. 5). […] Additionally, SDS-PAGE was used to assess whether acetylcholine caused aggregation (of particular importance for large beta-sheet biologics like antibodies). […] Both CD and SDS-PAGE were performed after incubation at room temperature for one hour."}, "[9]": {"test_system": "rituximab", "assay": "SPADE-mAb stability by circular dichroism", "type": "physicochemical", "conditions": "37 C for 24 hours", "protocol": "as §3\nProtein Stability Assessment Using Circular Dichroism and SDS-PAGE. Insulin and antibody formulations were incubated at 37° C. for one hour and subsequently dialyzed against 10 mM Sodium Phosphate pH 7.4. In preparation for circular dichroism (CD) and SDS-PAGE, the post-dialysis concentration was measured with UV Spectrophotometry (Thermo Scientific NanoDrop One) and adjusted to 200 μg/mL. […] Mean ellipticity was measured from 190 to 250 nm."}, "[10]": {"test_system": "antibody", "assay": "Antibody stability by circular dichroism", "type": "physicochemical", "conditions": "one hour at room temperature; versus fresh antibody control", "protocol": "as §4"}, "[11]": {"test_system": "dendritic cell line", "assay": "In vitro transfection with mRNA nanoparticles coated with DES", "type": "cell-based", "conditions": "4 hours incubation, flow cytometry", "protocol": "IL delivery of mRNA in vitro was assessed. The in vitro transfection experiments were performed in a dendritic cell line with mRNA nanoparticles and indicate that acetylcholine hexenoic acid DES can enhance mRNA treatments. The particles were incubated with acetylcholine DES solutions to “coat” the particles. The cells were incubated with the particles for the 4 hours before analyzing with flow cytometry."}, "[12]": {"target": "T2, Type I human collagen (Homo sapiens, UniProt P02452+P08123)", "T2 construct": "purchased Advanced BioMatrix (Carlsbad, CA)", "T2 sequence (P02452 162-1218 limits assumed)": "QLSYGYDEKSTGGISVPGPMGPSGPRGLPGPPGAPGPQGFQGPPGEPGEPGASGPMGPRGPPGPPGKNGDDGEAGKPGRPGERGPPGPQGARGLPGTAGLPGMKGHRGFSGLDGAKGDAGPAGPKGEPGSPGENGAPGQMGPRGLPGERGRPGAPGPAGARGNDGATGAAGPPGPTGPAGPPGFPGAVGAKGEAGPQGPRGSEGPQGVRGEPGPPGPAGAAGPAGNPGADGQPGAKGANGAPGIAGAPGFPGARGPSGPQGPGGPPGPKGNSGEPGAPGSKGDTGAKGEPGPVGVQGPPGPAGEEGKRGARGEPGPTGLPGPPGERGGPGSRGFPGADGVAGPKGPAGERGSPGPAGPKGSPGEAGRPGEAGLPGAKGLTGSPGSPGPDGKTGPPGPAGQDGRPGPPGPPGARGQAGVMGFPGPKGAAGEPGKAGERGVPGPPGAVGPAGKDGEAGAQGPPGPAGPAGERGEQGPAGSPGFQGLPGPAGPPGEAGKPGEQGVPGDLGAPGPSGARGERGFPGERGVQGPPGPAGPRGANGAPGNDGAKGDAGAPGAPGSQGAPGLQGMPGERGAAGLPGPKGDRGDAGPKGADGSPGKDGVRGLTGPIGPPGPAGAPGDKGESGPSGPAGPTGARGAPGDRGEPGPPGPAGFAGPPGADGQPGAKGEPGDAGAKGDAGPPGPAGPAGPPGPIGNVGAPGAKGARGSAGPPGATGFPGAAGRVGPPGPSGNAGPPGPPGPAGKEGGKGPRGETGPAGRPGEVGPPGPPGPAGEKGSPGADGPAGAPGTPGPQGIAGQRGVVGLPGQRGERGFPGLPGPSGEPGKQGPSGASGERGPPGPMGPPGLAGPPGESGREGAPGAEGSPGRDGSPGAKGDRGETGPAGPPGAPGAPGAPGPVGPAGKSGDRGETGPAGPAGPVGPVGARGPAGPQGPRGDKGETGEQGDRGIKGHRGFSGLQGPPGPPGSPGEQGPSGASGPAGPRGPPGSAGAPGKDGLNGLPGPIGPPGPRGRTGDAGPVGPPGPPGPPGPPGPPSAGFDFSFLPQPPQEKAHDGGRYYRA", "T2 sequence (P08123 80-1119 limits assumed)": "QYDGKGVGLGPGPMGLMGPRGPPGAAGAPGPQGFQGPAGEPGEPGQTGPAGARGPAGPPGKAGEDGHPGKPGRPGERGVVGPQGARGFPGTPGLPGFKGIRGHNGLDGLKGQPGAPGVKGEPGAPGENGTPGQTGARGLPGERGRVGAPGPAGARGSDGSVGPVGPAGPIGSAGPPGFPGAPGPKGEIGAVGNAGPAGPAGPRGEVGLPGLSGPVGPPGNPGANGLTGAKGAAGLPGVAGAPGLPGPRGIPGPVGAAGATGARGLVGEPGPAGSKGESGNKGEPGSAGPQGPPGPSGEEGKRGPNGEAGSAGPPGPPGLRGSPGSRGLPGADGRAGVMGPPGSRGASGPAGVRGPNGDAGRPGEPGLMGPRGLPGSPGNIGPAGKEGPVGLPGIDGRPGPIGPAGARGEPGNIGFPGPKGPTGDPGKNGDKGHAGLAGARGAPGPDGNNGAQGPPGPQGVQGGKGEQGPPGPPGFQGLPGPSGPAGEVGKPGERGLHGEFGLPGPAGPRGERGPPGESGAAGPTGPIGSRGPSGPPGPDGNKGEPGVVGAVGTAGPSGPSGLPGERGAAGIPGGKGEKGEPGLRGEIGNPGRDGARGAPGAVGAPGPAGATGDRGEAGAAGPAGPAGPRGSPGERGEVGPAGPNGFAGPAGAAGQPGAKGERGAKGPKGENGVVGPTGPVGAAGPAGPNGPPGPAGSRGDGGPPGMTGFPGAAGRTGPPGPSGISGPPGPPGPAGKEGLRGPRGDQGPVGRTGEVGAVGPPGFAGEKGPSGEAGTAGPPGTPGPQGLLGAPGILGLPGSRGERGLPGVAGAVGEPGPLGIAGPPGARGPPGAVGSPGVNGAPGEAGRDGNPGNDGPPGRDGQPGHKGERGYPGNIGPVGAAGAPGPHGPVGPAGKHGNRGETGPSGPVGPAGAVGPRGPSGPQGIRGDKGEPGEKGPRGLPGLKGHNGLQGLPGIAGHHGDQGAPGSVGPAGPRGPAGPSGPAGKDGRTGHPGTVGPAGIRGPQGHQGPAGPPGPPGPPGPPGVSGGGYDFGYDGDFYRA", "assay": "Fluorescence polarization of Cy5.5-labeled insulin mixed with collagen", "type": "binding", "conditions": "Cy5.5-labeled insulin in aCH versus saline control", "protocol": "The ability of SPADE to mitigate the interactions of proteins with ECM was assessed using the lead DES, aCH. A schematic representation of the hypothesized mechanism is depicted in FIG. 8A. SPADE (right) is hypothesized to decrease non-specific binding between administered therapeutic proteins and subcutaneous extracellular proteins such as collagen to allow for faster and greater absorption of protein biologics. To test this hypothesis, fluorescence polarization (FP) was performed and dynamic light scattering (DLS) utilized to determine the degree of collagen-insulin association. […] The average polarization was 1.5 times higher for the control group than the SPADE group. To further confirm the FP results and compare against Humalog, DLS was used to measure the average particle diameter (z-avg) after mixing insulin formulations with collagen, as the z-avg for insulin-bound collagen would increase with fewer unbound insulin molecules remaining and only the collagen or collagen-insulin complex being detected. The initial average z-avg for both the Humalog- and SPADE-insulin-collagen mixtures were approximately 100 nm. […]\nPhysical stability of the formulations in the presence of collagen was further assessed using fluorescence polarization (FP). […] When insulin is fluorescently labeled and excited with polarized light the perpendicular and parallel polarized light emission can be measured. […]"}, "[13]": {"target": "T1, insulin", "assay": "Stressed aging test of insulin-DES formulations (transmittance)", "type": "physicochemical", "conditions": "50 hours at 37 C with constant shaking", "protocol": "Successful dissolution of insulin was determined by the turbidity of the formulation, assessed by converting absorbance at 540 nm to transmittance.^16 The percent transmittance threshold for the successful formulation was set at 80% as this was the mean transmittance for the clinical comparator (Humalog). Low transmittance values are indicative of insoluble insulin aggregates. All but two formulations met this criterion (FIG. 13). To further screen the remaining DES formulations, a stressed aging test was performed to determine their stability for 50 hours at 37° C. with constant shaking.\nas §2"}, "[14]": {"target": "T1, insulin", "assay": "Circular dichroism of insulin-DES formulations", "type": "physicochemical", "conditions": "37 C for two hours", "protocol": "as §1\nProtein Stability Assessment Using Circular Dichroism and SDS-PAGE. […] In preparation for circular dichroism (CD) and SDS-PAGE, the post-dialysis concentration was measured with UV Spectrophotometry (Thermo Scientific NanoDrop One) and adjusted to 200 μg/mL. CD was performed by loading quartz cuvettes (Starna Cells Spectrosil Quartz 1-Q-1), with 200 μL of the sample, into a CD spectrophotometer (Jasco J-815). Mean ellipticity was measured from 190 to 250 nm."}, "[15]": {"conditions": "rat, in vivo, 10 mg/kg; cited from earlier work"}},
  "data": [
    {"substance": "Cy 5.5 fluorescently-labeled insulin (ligand)", "values": [
      {"measurement": "fold average polarization, control (saline) over SPADE (aCH)", "setting": "[1]", "result": 1.5, "unit": "fold"}
    ]},
    {"substance": "Humalog (insulin lispro) (ligand)", "values": [
      {"measurement": "average particle diameter (z-avg) of the mixture with collagen over 60 min", "setting": "[2]", "result": "> 5000", "unit": "nm"},
      {"measurement": "initial average particle diameter (z-avg) of the mixture with collagen", "setting": "[3]", "result": 100, "unit": "nm"}
    ]},
    {"substance": "acetylcholinium glycolate DES [aCG]", "values": [
      {"measurement": "Cmax of serum insulin, greater than the choline variant", "setting": "[4]", "result": 50, "unit": "%"},
      {"measurement": "insulin secondary structure (circular dichroism curves)", "setting": "[5]", "result": "match the saline negative control groups"}
    ]},
    {"substance": "acetylcholinium hexenoate DES [aCH]", "values": [
      {"measurement": "cold-chain stability", "setting": "[6]", "result": "stable through Day 28"},
      {"measurement": "rituximab stability by SDS-PAGE", "setting": "[7]; 10% (v/v) DES", "result": "faint band further up the gel"},
      {"measurement": "appropriate DES concentration for the SPADE-mAb formulation (from stability studies)", "setting": "[7]; SDS-PAGE and CD stability studies", "result": "5 % (v/v)"},
      {"measurement": "rituximab stability by SDS-PAGE", "setting": "[7]; all DES concentrations apart from 10% (v/v)", "result": "stable"},
      {"measurement": "insulin secondary structure (circular dichroism curves)", "setting": "[5]", "result": "match the saline negative control groups"},
      {"measurement": "antibody aggregation (SDS-PAGE)", "setting": "[8]", "result": "looked the same as the control"},
      {"measurement": "rituximab secondary structure by CD versus control", "setting": "[9]; 10% (v/v) DES", "result": "shift in mean ellipticity"},
      {"measurement": "rituximab secondary structure by CD versus control", "setting": "[9]; DES concentrations other than 10% (v/v)", "result": "none of the other DES concentrations experienced this shift"},
      {"measurement": "secondary structure of the antibody (circular dichroism)", "setting": "[10]", "result": "not affected"},
      {"measurement": "mean fluorescent intensity (GFP expression)", "setting": "[11]", "result": "higher"},
      {"measurement": "percent of cells expressing GFP", "setting": "[11]", "result": "increased"},
      {"measurement": "non-specific insulin-collagen binding (fluorescence polarization)", "setting": "[12]", "result": "inhibits non-specific insulin-collagen binding"},
      {"measurement": "outcome of stressed aging test", "setting": "[13]", "result": "viable"},
      {"measurement": "CD spectra of insulin versus control insulin in sodium phosphate buffer", "setting": "[14]", "result": "matched that of the control insulin"}
    ]},
    {"substance": "acetylcholinium priopionate DES [aCP]", "values": [
      {"measurement": "outcome of stressed aging test", "setting": "[13]", "result": "viable"}
    ]},
    {"substance": "cholinium hexenoate DES", "values": [
      {"measurement": "cold-chain stability", "setting": "[6]", "result": "stable through Day 28"},
      {"measurement": "outcome of stressed aging test", "setting": "[13]", "result": "viable"},
      {"measurement": "CD spectra of insulin versus control insulin in sodium phosphate buffer", "setting": "[14]", "result": "matched that of the control insulin"}
    ]},
    {"substance": "cholinium propionate DES [CP]", "values": [
      {"measurement": "outcome of stressed aging test", "setting": "[13]", "result": "viable"}
    ]},
    {"substance": "hyaluronidase", "values": [
      {"measurement": "increase of rituximab absorption", "setting": "[15]", "result": 91, "unit": "%"}
    ]},
    {"substance": "regular insulin formulated in aCH (SPADE-insulin) (from UniProt P01308 25-54; P01308 90-110) (ligand)", "values": [
      {"measurement": "average particle diameter (z-avg) of the mixture with collagen over 60 min", "setting": "[2]", "result": 100, "unit": "nm"},
      {"measurement": "initial average particle diameter (z-avg) of the mixture with collagen", "setting": "[3]", "result": 100, "unit": "nm"}
    ]}
  ]
}
